From ChEMBL document CHEMBL1201862, “PubChem BioAssay data set” (2004) come the findings set out here.

The nature of assay [1]: inhibitors of intracellular T. cruzi replication, confirmation, NIH3T3 host cells, beta-gal luminescence (AID 2044).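 Further: intracellular parasites grown in NIH/3T3 mouse fibroblasts as host cells; luminescent beta-galactosidase reporter signal from transgenic T. cruzi replicating inside host cells; inhibitors lower the luminescence signal.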 It is filed as functional, cell-based.
A further assay deals with T1, Hexokinase HKDC1 (Homo sapiens, UniProt Q2TB90).
T1 sequence (Q2TB90 whole entry): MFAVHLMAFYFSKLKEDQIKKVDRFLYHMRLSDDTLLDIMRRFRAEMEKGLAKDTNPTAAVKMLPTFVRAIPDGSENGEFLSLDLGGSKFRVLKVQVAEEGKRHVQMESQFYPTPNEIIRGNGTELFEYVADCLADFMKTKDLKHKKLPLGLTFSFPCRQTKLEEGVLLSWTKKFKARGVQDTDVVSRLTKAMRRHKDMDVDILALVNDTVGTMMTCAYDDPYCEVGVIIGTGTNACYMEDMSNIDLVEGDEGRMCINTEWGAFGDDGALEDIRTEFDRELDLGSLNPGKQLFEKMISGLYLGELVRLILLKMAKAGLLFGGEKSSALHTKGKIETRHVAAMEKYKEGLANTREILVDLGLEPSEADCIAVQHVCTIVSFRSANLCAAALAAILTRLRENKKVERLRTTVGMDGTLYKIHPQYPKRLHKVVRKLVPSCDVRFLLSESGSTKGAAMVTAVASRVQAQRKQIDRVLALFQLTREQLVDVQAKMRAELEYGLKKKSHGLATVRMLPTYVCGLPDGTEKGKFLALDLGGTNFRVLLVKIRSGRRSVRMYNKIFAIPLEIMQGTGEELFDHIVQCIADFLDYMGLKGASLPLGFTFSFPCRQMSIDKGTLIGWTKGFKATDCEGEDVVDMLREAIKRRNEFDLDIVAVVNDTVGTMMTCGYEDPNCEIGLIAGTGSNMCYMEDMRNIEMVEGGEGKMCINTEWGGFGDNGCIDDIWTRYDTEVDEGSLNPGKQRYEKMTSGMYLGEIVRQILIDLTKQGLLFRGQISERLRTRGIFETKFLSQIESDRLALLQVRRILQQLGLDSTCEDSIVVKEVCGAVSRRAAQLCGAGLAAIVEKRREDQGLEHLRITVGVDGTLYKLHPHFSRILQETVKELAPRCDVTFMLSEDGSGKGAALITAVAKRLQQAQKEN
Kind of assay: HKDC1 hexokinase activators, dose response, biochemical, W721R variant (AID 504730). Format: functional.

The target of assay [2] is T2, Apoptotic protease-activating factor 1 (Homo sapiens, UniProt O14727).
T2 sequence (O14727 whole entry): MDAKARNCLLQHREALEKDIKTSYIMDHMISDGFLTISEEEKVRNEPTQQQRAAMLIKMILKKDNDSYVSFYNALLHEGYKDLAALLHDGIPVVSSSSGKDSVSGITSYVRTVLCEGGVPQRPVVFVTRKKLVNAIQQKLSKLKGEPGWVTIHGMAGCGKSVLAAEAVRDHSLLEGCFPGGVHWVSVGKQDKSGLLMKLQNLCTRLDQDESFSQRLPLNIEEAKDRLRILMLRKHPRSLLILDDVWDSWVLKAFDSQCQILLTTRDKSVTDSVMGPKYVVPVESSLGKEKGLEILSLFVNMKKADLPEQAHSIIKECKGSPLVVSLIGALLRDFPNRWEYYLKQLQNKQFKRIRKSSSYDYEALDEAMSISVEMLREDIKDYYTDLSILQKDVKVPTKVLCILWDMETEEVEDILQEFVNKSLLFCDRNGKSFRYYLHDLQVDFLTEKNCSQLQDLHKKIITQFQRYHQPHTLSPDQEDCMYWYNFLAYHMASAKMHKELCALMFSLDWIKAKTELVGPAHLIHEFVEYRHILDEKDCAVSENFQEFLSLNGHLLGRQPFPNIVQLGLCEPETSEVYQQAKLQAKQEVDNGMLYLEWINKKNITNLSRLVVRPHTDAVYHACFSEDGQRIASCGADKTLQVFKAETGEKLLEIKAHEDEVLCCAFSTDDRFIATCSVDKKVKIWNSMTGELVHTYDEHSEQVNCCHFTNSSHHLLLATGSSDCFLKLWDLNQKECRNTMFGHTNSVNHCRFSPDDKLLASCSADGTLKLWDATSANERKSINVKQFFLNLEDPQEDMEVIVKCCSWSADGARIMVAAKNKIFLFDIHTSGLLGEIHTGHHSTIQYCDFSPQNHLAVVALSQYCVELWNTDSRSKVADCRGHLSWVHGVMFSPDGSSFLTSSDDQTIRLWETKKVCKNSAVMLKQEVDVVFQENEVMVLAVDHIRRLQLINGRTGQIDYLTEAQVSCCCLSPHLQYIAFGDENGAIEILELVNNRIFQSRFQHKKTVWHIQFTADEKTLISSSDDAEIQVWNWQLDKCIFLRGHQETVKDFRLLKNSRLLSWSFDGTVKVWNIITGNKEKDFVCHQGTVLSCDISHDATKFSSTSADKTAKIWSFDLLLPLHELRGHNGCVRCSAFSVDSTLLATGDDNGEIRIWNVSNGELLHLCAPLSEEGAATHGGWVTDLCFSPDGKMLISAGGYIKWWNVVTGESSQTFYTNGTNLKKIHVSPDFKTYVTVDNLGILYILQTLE
It is filed as functional.

SMILES strings stand for the structures. The source made the active and inactive calls.

Consider `Clc1ccc(/N=c2\ssnc2Cl)nc1`, for which the EC50 in assay [1] was 1.45 µM (active); at Hexokinase HKDC1, 50.3 µM (inactive). In addition, the IC50 in assay [2] is 14.3 µM (active).

A word on the EC50: it is the concentration at which the effect is half-maximal. By IC50 is commonly meant the point on the concentration scale where inhibition reaches its midpoint.
